Source: patent publication US10428336B2, “Method for modulating plant growth” (The Australian National University, priority 2013, dated 2019)
Square brackets hold non-standard residues; d marks the D form. Ends that are not written are not given here. Hyp = O=C(O)[C@@H]1C[C@@H](O)CN1

Key:
Arabidopsis root growth = conditions: synthetic 15 amino acid peptide at 10^−6 M to 10^−7 M; cited from earlier work
[1] = tested on: Brachypodium distachyon BD21; assay: Shoot growth of B. distachyon in layered agar medium containing CEP peptide; type: in vivo; conditions: 16 day old plants, 1 μM peptide in medium with barrier; for shoot length: vs no peptide controls, ANOVA
Method: Brachypodium. distachyon BD21 seeds were sterilised by washing in 80% ethanol for 1 minute, followed by shaking in 50 ml of 10% stock sodium hypochlorite (Northfork) with 200 μl of Triton X-100 (per 50 mL) for 5 minutes, before rinsing three times in sterile water. Seeds were then stratified for 3 days in the dark at 4° C. to induce synchronized germination. Plants were grown at 21° C. on a 16/8 h light/dark cycle in a constant environment walk-in cabinet (100 μmol/m^−2/s^−2).
Murashige and Skoog basal medium (Sigma-Aldrich Corporation, St. Louis, USA) was prepared (2.2 g/L, sterile RO water), 10% MES buffer added, and the pH adjusted to 5.7 using 1 M KOH. Falcon tubes (BD Biosciences, Australia; 50 mL max volume) containing two agar layers were prepared using the following ranges of agar concentrations: 0.2%, 0.4%, 0.5%, 0.8%, 1.0% for soft top layer and 0.5%, 1.0%, 1.5%, 2.0%, 2.5%, 3.0% and 4.0% for hard bottom layer. Type-M agar (Sigma-Aldrich Corporation) was used in all experiments. The hard layers contained 15 mL of agar and the (upper) soft layers contained 10 mL of agar. Seeds were placed one per falcon tube for root assays, with embryos facing away from the media.
Synthetic CEP peptides corresponding to those predicted to be the final products of the BdCEP1 and AtCEP5 coding sequences (SEQ ID NOs: 483 and 11, respectively) were prepared (but the BdCEP1 peptide was synthesized missing the first two amino acids, and designated as BdCEP3a in FIGS. 16 and 17) and added to molten media (60° C.) to a final concentration of 1μM.
Tubes were set up with optimal agar concentrations of 0.5% for soft top layer and 2.5% for hard bottom layer which induced a strong mechanical response in untreated plants. A layered agar system with no peptide addition and an un-layered system (0.5%, uniform agar concentration; 25 ml) with no peptide addition were used as controls. Each tube was fitted into an 8 slot Falcon tube rack which was covered in aluminum foil to minimize light exposure to the root systems. This system allowed tubes to be periodically removed for easy visual inspection. The upper level of the soft layer was below the level of the rack.
Shoot length was measured at the end of the growth period. Data obtained from analyzing root system measurements were statistically analyzed.

M. truncatula roots = assay: Exogenous application of synthetic CEP peptides to M. truncatula roots; type: in vivo, Medicago truncatula; conditions: synthetic ligand applied to roots
Excerpt: The CEP peptides were synthesized at the Biomolecular Resource Facility, The Australian National University. The 15 amino acid (aa) peptides corresponding to the conserved domains of MtCEP1 (AFQHypTTPGNSHypGVGH and EFQKTNPGHSHypGVGH—SEQ ID Nos: 451 and 452 respectively—where Hyp indicates hydroxy proline residue) and M. hapla MhCEP2 (AFRHypTAPGHSHypGVGH; SEQ ID NO: 453) were synthesized and validated as previously described in Djordjevic M A, et al. (2011), “Border sequences of Medicago truncatula CLE36 are specifically cleaved by endoproteases common to the extracellular fluids of Medicago and soybean”, J Exp Bot 62(13):4649-4659. The root length of wild-type plants was measured four days after transfer to Fåhraeus-medium containing the synthetic peptide. For the hormone assays, A17 plants were grown on Fåhraeus-medium for 10 days before transferring to Fåhraeus-medium containing 10^−6 M of the respective phytohormones; 1-aminocyclopropane-1-carboxylic acid (ACC), 6-benzylaminopurine (BAP), gibberellic acid (GA), synthetic analog of strigolactone (GR24), methyl jasmonate (MeJA) and 1-naphthaleneacetic acid (NAA).

[2] = tested on: Arabidopsis thaliana (accession Col-0); assay: Root growth assay of Col-0 plants on standard medium supplemented with synthetic CEP peptides; type: in vivo; conditions: 12-day-old Col-0 plants, peptide at 10−6 M (1 μM), compared to untreated plants
Method: FIG. 8—CEP synthetic peptides decrease primary root length and lateral root density. (A) CEP peptides used in growth assays. (hyP) indicates hydroxyproline residues. (B) Alignment of CEP3, CEP5 and CEP9.1 peptide domains. (C) Primary root length and lateral root density of 12-day-old Col-0 plants grown on standard medium supplemented with 1 μM of the specified peptide. n≥7 plants. (D) Differential biological activity of CEP3, CEP5 and CEP9 peptide variants. The histogram indicates the lowest concentration at which a peptide elicited a significant reduction in primary root length compared to untreated plants (P<0.05). Col-0 plants were grown vertically for 12 days on standard medium supplemented with peptide concentrations ranging from 10^−6 M to 10^−12 M. n=7-16 plants. Error bars show standard error. *P≤0.05; **P≤0.01; *** P≤0.001 (two-sample t-test, Genstat).
For root assays, seeds of Arabidopsis thaliana (accession Col-0) were surface sterilized with 6.25% bleach, stratified for 3-4 days and sown onto plates. […] Plates were imaged using an Epson scanner and images were analysed using the SmartRoot plugin (Lobet et al., 2011) in ImageJ. Statistically significant differences were determined using a two-sample t-test (Genstat 14th edition) where appropriate. […]

Row | Substance | number of leaves per plant on average [1] [leaves] | shoot length [1] | root phenotype (periodic bumps resembling galls) (M. truncatula roots) | other results
1 | CEP1: synthetic 15 amino acid CEP1 peptide of Ohyama et al., 2008 (DFRPTNPGNSPGVGH; ends and bridges not checked; listed as Arabidopsis thaliana) | – | – | – | root growth (Arabidopsis root growth): inhibited root growth
2 | DSTTPGHSPSIGH (also: hydroxyproline predicted at Pro5 and Pro9, not given here for synthetic peptide) [BdCEP1, BdCEP1 peptide synthesized missing the first two amino acids, designated BdCEP3a] | 4.7 | significantly longer shoots | – | –
3 | DFRPTTPGHSPGIGH [AtCEP5] | 4.9 | significantly longer shoots | – | –
4 | AFQHypTTPGNSHypGVGH and EFQKTNPGHSHypGVGH [MtCEP1] | – | – | periodic bumps induced | –
5 | DFVPTSPGNSPGVGH [CEP9.1, synthetic non-hydroxylated CEP9.1 peptide domain] | – | – | – | lateral root density [2]: reduced lateral root density; primary root length [2]: much weaker effect on primary root length
6 | AFR[Hyp]TAPGHS[Hyp]GVGH [MhCEP2] | – | – | periodic bumps induced | –
